Common to all, as to assay: NCI anticancer screen, dose series, 48 h
Assay [1] has as its system SNB-75 CNS.
The subject of assay [2] is SF-268 CNS.
Assay [3] concerns SR leukemia.
Assay [4] concerns SK-MEL-5 melanoma.
The test system of assay [5] is OVCAR-8 ovarian.
For assay [6], the system named is KM12 colon.
For assay [7], the system named is UACC-257 melanoma.
Assay [8] relates to HL-60(TB) leukemia.
Assay [9] concerns SK-MEL-2 melanoma.
Assay [10] concerns COLO 205 colon.

Each structure is given as a SMILES string.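 Dose response: 5 concentrations. Exposure: 48 h. Format: 96-well plates. Endpoint: linear interpolation; highest concentration if not reached. GI50 = concentration required for 50% inhibition of growth. TGI: concentration producing complete growth inhibition.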 A value given as a limit tells only on which side of the number the result lay.

Take `Clc1ccc2nc(Cl)c3ccccc3c2c1`: the GI50 in assay [1] is 2.09 µM; in assay [2] it was 17.2 µM; in [3], 22 µM; in [4] it was more than 100 µM; in [5] it was 11.8 µM; in [6] it was 15.4 µM. Besides, the GI50 in assay [7] is more than 100 µM; in assay [8], more than 100 µM; in [9], 24.3 µM; in assay [10] it was 46.8 µM. For the same compound, the TGI in assay [1] was 8.16 µM; in assay [2] it was more than 100 µM; in assay [3], more than 100 µM; in [4] it was more than 100 µM; in assay [5], more than 100 µM; in assay [6], more than 100 µM. Further, the TGI in assay [7] is more than 100 µM; in [8], more than 100 µM; in assay [9], 60.8 µM; in assay [10] it was more than 100 µM.
With `CC(=O)OCCOCNC(=S)N/N=C(\C)c1cccs1`, the TGI in assay [1], in assay [2], in assay [3], in assay [4], in assay [5] and in assay [6] was more than 100 µM in each case. Besides, the TGI in assay [7], in assay [8], in assay [9] and in assay [10] was more than 100 µM in each case.
For `COc1cnc2c(c1)C(=O)c1c-2n(CCCNCCN2CCOCC2)c(=O)c2cc([N+](=O)[O-])ccc12`, the GI50 in assay [1] was 0.265 µM; in assay [2], 0.0818 µM; in assay [3], 0.0151 µM; in assay [4], 0.263 µM; in assay [5], 0.174 µM; in assay [6] it was 0.399 µM. Moreover, the GI50 in assay [7] is 0.586 µM; in [8] it was 0.104 µM; in [9], 1.59 µM; in assay [10] it was 0.297 µM. The TGI in [1] came out at 10.7 µM; in assay [2], 13.3 µM; in [3] it was 1.02 µM; in assay [4] it was 1.26 µM; in assay [5], 10.2 µM; in assay [6], 3.57 µM. The TGI in [7] came out at 13.3 µM; in assay [8] it was 0.818 µM; in [9], 14.4 µM; in assay [10] it was 3.07 µM.
As for `CN(C)CC1CCCCCC(Br)C1=O` (stereo not given), the TGI in [1] was more than 100 µM; in [2], more than 66.1 µM; in assay [3] it was 7.14 µM; in assay [4], 30.3 µM; in assay [5], 32.8 µM; in assay [6] it was 41 µM. The TGI in assay [7] stood at 23 µM; in assay [8], 30.1 µM; in assay [9] it was 54.4 µM; in assay [10] it was 31.6 µM.

Source of the values: PubChem BioAssay (NCI).
